Laboratory results: PubChem BioAssay AID248 (DTP/NCI, 2004)
Where “and” joins values, the source holds several entries; their conditions need not be identical. Equal values may be shown once. Inconclusive results and toxic doses are left out. No stated cut-off is given here; in the data, active means T/C of 150% or more; inactive means T/C below 125%.

System: L1210 leukemia ip in BDF1 mice, survival T/C
Experiment: NCI In Vivo Anticancer Drug Screen. Data for tumor model L1210 Leukemia (intraperitoneal) in B6D2F1 (BDF1) mice
Details: endpoint: mean survival time, higher = longer survival
Outline: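 In this screen, tumor-bearing mice given compound are compared to those given vehicle, and their survival values are reported as a treated-to-control quotient.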

[1] = dose: 100.0 mg/kg/injection, schedule: Q04DX003 (ip), vehicle: Klucel (hydroxypropylcellulose) (HPC)
[2] = dose: 200.0 mg/kg/injection, schedule: Q04DX003 (ip), vehicle: Klucel (hydroxypropylcellulose) (HPC)
[3] = dose: 100.0 mg/kg/injection, schedule: Q01DX001 (ip), vehicle: Klucel (hydroxypropylcellulose) (HPC)
[4] = dose: 200.0 mg/kg/injection, schedule: Q01DX001 (ip), vehicle: Klucel (hydroxypropylcellulose) (HPC)
[5] = dose: 400.0 mg/kg/injection, schedule: Q01DX001 (ip), vehicle: Klucel (hydroxypropylcellulose) (HPC)
[6] = dose: 100.0 mg/kg/injection, schedule: Q04DX003 (ip), vehicle: saline with Tween-80
[7] = dose: 200.0 mg/kg/injection, schedule: Q04DX003 (ip), vehicle: saline with Tween-80
[8] = dose: 50.0 mg/kg/injection, schedule: Q01DX009 (ip), vehicle: saline with Tween-80
[9] = dose: 100.0 mg/kg/injection, schedule: Q01DX009 (ip), vehicle: saline with Tween-80
[10] = dose: 50.0 mg/kg/injection, schedule: Q01DX001 (ip), vehicle: saline
[11] = dose: 100.0 mg/kg/injection, schedule: Q01DX001 (ip), vehicle: saline
[12] = dose: 200.0 mg/kg/injection, schedule: Q01DX001 (ip), vehicle: saline
[13] = dose: 400.0 mg/kg/injection, schedule: Q01DX001 (ip), vehicle: saline
[14] = dose: 100.0 mg/kg/injection, schedule: Q01DX009 (ip), vehicle: Klucel (hydroxypropylcellulose) (HPC)
[15] = dose: 100.0 mg/kg/injection, schedule: Q01DX009 (ip), vehicle: saline
[16] = dose: 200.0 mg/kg/injection, schedule: Q01DX009 (ip), vehicle: Klucel (hydroxypropylcellulose) (HPC)
[17] = dose: 200.0 mg/kg/injection, schedule: Q01DX009 (ip), vehicle: saline
[18] = dose: 400.0 mg/kg/injection, schedule: Q04DX003 (ip), vehicle: Klucel (hydroxypropylcellulose) (HPC)
[19] = dose: 50.0 mg/kg/injection, schedule: Q01DX001 (ip), vehicle: Klucel (hydroxypropylcellulose) (HPC)

Measured: T/C

O=C(OC(=O)c1ccncc1)c1ccncc1
inactive: dose: 75.0 mg/kg/injection, schedule: Q04DX003 (ip), vehicle: saline 94 % of control | dose: 150.0 mg/kg/injection, schedule: Q04DX003 (ip), vehicle: saline 92 % of control | dose: 300.0 mg/kg/injection, schedule: Q04DX003 (ip), vehicle: saline 110 % of control

O=Cc1ccccc1OCCCC[P+](c1ccccc1)(c1ccccc1)c1ccccc1
inactive: dose: 5.0 mg/kg/injection, schedule: Q01DX001 (ip), vehicle: saline 111 % of control | dose: 10.0 mg/kg/injection, schedule: Q01DX001 (ip), vehicle: saline 107 % of control | dose: 20.0 mg/kg/injection, schedule: Q01DX001 (ip), vehicle: saline 102 % of control

COc1ccccc1-n1c(O)c(N=Nc2ccccc2)c(=O)n(-c2ccc(C)cc2)c1=S
inactive: dose: 50.0 mg/kg/injection, schedule: Q04DX003 (ip), vehicle: Klucel (hydroxypropylcellulose) (HPC) 100 % of control | [1] 98 % of control | [2] 102 % of control

O=c1ncccn1Cc1ccccc1
inactive: [3] 112 % of control | [4] 98 % of control | [5] 107 % of control

C[S+]1Cc2ccccc2C1
inactive: [6] 106 % of control | [7] 104 % of control

COn1c(/C=N/NC(N)=S)ccc1CN1C(=O)c2ccccc2C1=O
inactive: [3] 100 % of control | [4] 97 % of control | [5] 93 % of control

OC(CSc1ccccc1)(c1ccccc1)c1ccccc1
inactive: dose: 56.3 mg/kg/injection, schedule: Q03DX002 (ip), vehicle: saline with Tween-80 121 % of control | dose: 112.0 mg/kg/injection, schedule: Q03DX002 (ip), vehicle: saline with Tween-80 102 % of control

N#CCCCCN1C(=O)c2ccccc2C1=O
inactive: [8] 94 % of control | [9] 94 % of control | [6] 98 % of control | [7] 97 % of control

CCC(CC)(c1ccccc1)C(O)c1ccccc1 (configuration not stated)
inactive: [10] 97 % of control | [11] 97 % of control | [12] 103 % of control | [13] 101 % of control

CC(C)C(=O)Nc1ccc([N+](=O)[O-])c(C(F)(F)F)c1
inactive: [3] 102 % of control | [14] 93 % of control and 109 % of control | [15] 105 % of control | dose: 100.0 mg/kg/injection, schedule: Q04DX002 (ip), vehicle: Klucel (hydroxypropylcellulose) (HPC) 97 % of control and 92 % of control | [1] 100 % of control | dose: 100.0 mg/kg/injection, schedule: Q04DX003 (ip), vehicle: saline 108 % of control | [4] 102 % of control | [16] 100 % of control and 103 % of control | [17] 92 % of control | dose: 200.0 mg/kg/injection, schedule: Q04DX002 (ip), vehicle: Klucel (hydroxypropylcellulose) (HPC) 100 % of control and 102 % of control | [2] 109 % of control | dose: 200.0 mg/kg/injection, schedule: Q04DX003 (ip), vehicle: saline 101 % of control | [5] 110 % of control | dose: 400.0 mg/kg/injection, schedule: Q04DX002 (ip), vehicle: Klucel (hydroxypropylcellulose) (HPC) 100 % of control and 113 % of control | [18] 92 % of control | dose: 400.0 mg/kg/injection, schedule: Q04DX003 (ip), vehicle: saline 88 % of control

COc1c(NC(=O)CC(C)=O)ccc2c(C)cc(=O)n(C)c12
inactive: [19] 103 % of control | [3] 99 % of control | [4] 100 % of control

CO[C@H]1C[C@H](O[C@H]2CC[C@]3(C=O)[C@H]4CC[C@]5(C)[C@@H](C6=CC(=O)OC6)CC[C@]5(O)[C@@H]4CC[C@]3(O)C2)O[C@H](C)[C@H]1O[C@@H]1O[C@H](CO[C@@H]2O[C@H](CO)[C@@H](O)[C@H](O)[C@H]2O)[C@@H](O)[C@H](O)[C@H]1O
inactive: dose: 0.25 mg/kg/injection, schedule: Q01DX001 (sc), vehicle: steriod suspending solution 98 % of control | dose: 0.5 mg/kg/injection, schedule: Q01DX001 (sc), vehicle: steriod suspending solution 96 % of control | dose: 1.0 mg/kg/injection, schedule: Q01DX001 (sc), vehicle: steriod suspending solution 98 % of control | dose: 2.0 mg/kg/injection, schedule: Q01DX001 (sc), vehicle: steriod suspending solution 98 % of control

c1cnc2[nH]cnc2n1
inactive: [15] 86 % of control | [1] 100 % of control | [17] 109 % of control | [2] 100 % of control | dose: 400.0 mg/kg/injection, schedule: Q01DX009 (ip), vehicle: saline 112 % of control | [18] 105 % of control

c1ccc2c(c1)ccc1c3ccc4ccccc4c3[nH]c21
inactive: [11] 95 % of control | [12] 90 % of control | [13] 94 % of control

N#Cc1cc2c3ccccc3ncc2c2ccccc12
inactive: [1] 91 % of control | [16] 96 % of control | [2] 89 % of control | [18] 89 % of control

O=C(CNC(=O)Nc1nccs1)N/N=C/c1cccc([N+](=O)[O-])c1
inactive: [14] 97 % of control | [16] 100 % of control and 90 % of control | dose: 400.0 mg/kg/injection, schedule: Q01DX009 (ip), vehicle: Klucel (hydroxypropylcellulose) (HPC) 97 % of control

O=[N+]([O-])c1ccc(S(=O)(=O)F)c(Cl)c1
inactive: [11] 98 % of control | [12] 90 % of control | [13] 96 % of control

CC(C)(C)c1ccc2c(c1)CCCC2
inactive: [8] 93 % of control | [9] 89 % of control | dose: 200.0 mg/kg/injection, schedule: Q01DX009 (ip), vehicle: saline with Tween-80 96 % of control

O=C1CC(=O)C(Cl)=C1Cl
inactive: dose: 15.0 mg/kg/injection, schedule: Q01DX001 (ip), vehicle: carboxymethylcellulose (CMC) 93 % of control

CC(=O)NCCc1ccc(N)cc1
inactive: [11] 108 % of control | [12] 101 % of control | [13] 98 % of control

COc1cc2c(cc1OC)C(NNC(C)=O)CCCC2 (configuration not stated)
inactive: [11] 97 % of control | [12] 97 % of control | [13] 103 % of control

O=[N+]([O-])c1cc(Cl)cc2c1-c1c(Cl)cc(Cl)cc1C2O (configuration not stated)
inactive: [14] 91 % of control | [1] 104 % of control | [16] 104 % of control | [2] 103 % of control | [18] 97 % of control

O=C(CCCC(=O)N/N=C/c1ccc(Cl)cc1Cl)N/N=C\c1ccc(Cl)cc1Cl
inactive: [10] 97 % of control | [11] 97 % of control | [12] 93 % of control | [13] 97 % of control

Cc1cccc(NC(=O)N(C)N)c1
inactive: dose: 75.0 mg/kg/injection, schedule: Q01DX001 (ip), vehicle: carboxymethylcellulose (CMC) 96 % of control | dose: 150.0 mg/kg/injection, schedule: Q01DX001 (ip), vehicle: carboxymethylcellulose (CMC) 104 % of control

CCOC(=O)c1cnc(SC)nc1Nc1ccccc1N
inactive: [19] 94 % of control | [3] 94 % of control | [4] 101 % of control

CCN(CC)CCCC#CCN1CCCC1
inactive: dose: 50.0 mg/kg/injection, schedule: Q01DX009 (ip), vehicle: Klucel (hydroxypropylcellulose) (HPC) 92 % of control | [14] 100 % of control | [1] 91 % of control | [2] 100 % of control
